Data as given in US9994862B2, “Rice resistant to HPPD and ACCase inhibiting herbicides” (priority 2011, dated 2018).
Entries after “also recorded” stand apart in the source; their conditions may differ.

Legend:
[1] = system: common grass weeds, such as barnyard grass; assay: Grass weed control by ACCase herbicides in rice; assay type: in vivo; conditions: for control of common grass weeds in rice: in vivo
Source text: (§1) FIG. 5 illustrates grass weed control by the ACCase inhibitor quizalofop; control is shown by the prevalent grass weed (dead plants) being killed by quizalofop (77 gm ai/ha) while the resistant line ML0831265-01493 (live plants) were not injured.
Rice is tolerant to certain ACCase inhibitor herbicides, for example cyhalofop is registered for use in rice. However other ACCase herbicides kill or severely injure rice to varying degrees. […] The applied rates of both types of herbicides giving the weed control are well within the tolerance level of the respective ACCase and HPPD tolerant lines including the combined lines carrying tolerance to both HPPD and ACCase herbicides.

[2] = system: HPPD tolerant line ML0831266-03093; assay: ACCase herbicide field trial; assay type: in vivo, rice; conditions: for resistance to ACCase inhibiting herbicides compared with line P1003: 0.5x to 4x of label rate (fluazifop 210 gmai/ha, quizalofop 77 gmai/ha)
Protocol: (§2) FIG. 3A-3B is a photograph of line ML0831266-03093 that in addition to resistance to HPPD herbicides also has enhanced resistance to ACCase herbicides. […] Picture taken four weeks after herbicide application.
(§3) During the process of showing equivalent resistance of the ACCase tolerance in the new line PL1214418M2-73009, the HPPD tolerant line ML0831266-03093 was also evaluated for response to ACCase tolerance by application of the ACCase herbicides fluazifop at 0.5×, 1×, 2×, and 4× multiples of the label application rate (210 gmai/ha) and quizalofop at 0.5×, 1×, 2×, and 4× multiples of the label application rate (77 gmai/ha). In the field trials the resistant HPPD line ML0831266-03093 was planted in a row adjacent to the parent line P1003. […] By combining the HPPD tolerance with the ACCase tolerance the newly developed line PL1214418M2-73009, or any other new line and other derived lines because resistance is heritable and can be bred into lines e.g. progeny may carry a higher tolerance to ACCase inhibiting herbicides than lines developed from only the ACCase inhibitor resistant line ML0831265-01493.

[3] = system: line P1003; assay: ACCase herbicide field trial; assay type: in vivo, rice; conditions: four weeks after application
Protocol: as §2, §3

[4] = system: line PL1214418M2-80048; assay: Herbicide tolerance of the combined HPPD and ACCase line; set-up: species or system rice; conditions: in vivo
Source text: An early maturing group of plants was harvested as early as possible and the seeds planted in the greenhouse to help quickly advance to the F4 generation. Selections on the F3 plants were made by molecular markers flanking the HPPD tolerance mutation and native tolerance the ACCase functional mutation. Homozygous plants for all the selected genomic regions were advanced to the F5 generation. The F5 seed was confirmed to carry tolerance to ACCase herbicides and the HPPD herbicide mesotrione. Among the F5 lines PL1214418M2-80048 was selected due to a high seed yield and being homozygous for the ACCase tolerance mutation at position G2096S, the HPPD tolerance mutation, and the HPPD tolerance native gene. Seed from the line PL1214418M2-80048 was deposited at the ATCC and given a deposit number PTA-121362 (see Table 8).
Individuals with tolerance to both mesotrione and ACCase herbicides were selfed to produce F3 families and further selected for other important agronomic characters. The F3 lines were selfed and purified to derive a new line or variety with dual resistance to mesotrione and ACCase herbicides. Such lines are highly valuable as the use of both herbicides provides more complete and broad-spectrum weed control. […]

[5] = system: line PL1214418M2-73009; assay: ACCase herbicide field trial; assay type: in vivo, rice; conditions: for tolerance to ACCase herbicide compared with donor line ML0831265-01493: 0.5x to 4x of label rate (fluazifop 210 gmai/ha, quizalofop 77 gmai/ha)
Protocol: FIG. 2 is a graphical representation of a trait tolerance trial; the trial rice were planted, quizalofop was applied at the indicated rates about 5 weeks later (initiating tillering); the rice was evaluated for the percent of injury or damage as compared to unsprayed rice four weeks after herbicide application; line ML0831265-01493 is the ACCase resistant line and R0146 and P1003 are control lines; the line PL1214418M2-73009 was selected out of a cross between the HPPD tolerant line ML0831266-03093 (parent is P1003) and the ACCase tolerant line ML0831265-01493 (parent is R0146).
(§4) Another trial was conducted to confirm recovery of the ACCase inhibitor resistance from the G2096S mutation as in the line ML0831265-01493. In this trial the new line PL1214418-73009 with combined HPPD and ACCase tolerance was planted in a row along with other various lines including the original donor line ML0831265-01493 (planted in a plot), ML0831266-03093, P1003, R0146 parent line for ACCase tolerance. The lines were all tested with the ACCase herbicides fluazifop at 0.5×, 1×, 2×, and 4× multiples of the label application rate (210 gmai/ha) and quizalofop at 0.5×, 1×, 2×, and 4× multiples of the label application rate (77 gmai/ha).

[6] = system: line ML0831265-02283; assay: ACCase herbicide field trial; assay type: in vivo, rice
Source text: After screening a large mutant population, the line ML0831265-02283 also survived application of the ACCase herbicide quizalofop. The line was increased to obtain sufficient seed for larger trials to evaluate its tolerance to ACCase herbicides. The tolerance to ACCase herbicides in line ML0831265-02283 was validated by planting in the field plots (5 feet by 10 feet) of the line, the non-mutant parent line R0146, a second non-mutant line P1003, and the ACCase tolerant line ML0831265-01493. The ACCase herbicide quizalofop was applied at the four leaf stage at 0.5×, 1×, 2×, and 4× multiples of the labeled rate (77 gmai/ha). Twenty one days after the herbicide was applied the plots were evaluated for percent injury caused to the rice based on control plots that had no herbicide application (FIG. 8). The data confirms the tolerance of line ML0831265-02283 and it may even carry more tolerance than line ML0831265-01493 as shown by less injury at the 2× and 4× rates of quizalofop.

[7] = system: ACCase resistant line ML0831265-01493; assay: ACCase herbicide field trial; assay type: in vivo, rice; conditions: quizalofop 77 gm ai/ha
Protocol: as §1, §4
After screening a large mutant population, the line ML0831265-02283 also survived application of the ACCase herbicide quizalofop. The line was increased to obtain sufficient seed for larger trials to evaluate its tolerance to ACCase herbicides. […] Twenty one days after the herbicide was applied the plots were evaluated for percent injury caused to the rice based on control plots that had no herbicide application (FIG. 8). […]

Row | SMILES | control of common grass weeds in rice [1] | resistance to ACCase inhibiting herbicides compared with line P1003 [2] | killing of rice plants ([3]; fluazifop alone 210 gmai/ha at initiation of tillering) | tolerance to the herbicide [4] | tolerance to ACCase herbicide compared with donor line ML0831265-01493 [5] | tolerance to fluazifop ([5]; in vivo) | grass weed control ([1]; quizalofop 77 gm ai/ha, prevalent grass weed) | survival after quizalofop ([2]; 77 gm ai/ha, four weeks after application) | survival after quizalofop ([3]; 77 gm ai/ha) | injury compared with line ML0831265-01493 ([6]; 2x and 4x of the labeled rate 77 gmai/ha, four leaf stage, 21 days after application) | survival in the screening of the mutant population ([6]; in vivo) | injury of the rice [7]
1 | CC(Oc1ccc(Oc2ccc(C(F)(F)F)cn2)cc1)C(=O)O (stereo not drawn) [fluazifop] | good control | more resistance | no killing of the rice plants was observed | tolerance | equivalent tolerance | tolerance | – | – | – | – | – | –
2 | CC(Oc1ccc(Oc2cnc3cc(Cl)ccc3n2)cc1)C(=O)O (stereo not drawn) [quizalofop] | good control | more resistance | – | – | equivalent or better; also recorded: equivalent tolerance | – | killed | surviving | does not survive | less injury | survived | not injured
